Legend:
HCV NS5B = molecular target: T1, HCV NS5B (Hepatitis C virus genotype 1b, UniProt Q9WMX2); experiment: Modified HCV NS5B RdRp enzyme assay (preincubation protocol); format: biochemical
T1 construct: The cDNA encoding the NS5B protein of HCV, genotype 1b; made in house; host or cells: E. coli BL21(DE3)
Method: HCV NS5B RdRp cloning, expression, and purification. The cDNA encoding the NS5B protein of HCV, genotype 1b, was cloned into the pET21a expression vector. The protein was expressed with an 18 amino acid C-terminal truncation to enhance the solubility. The E. coli competent cell line BL21(DE3) was used for expression of the protein. Cultures were grown at 37° C. for ˜4 hours until the cultures reached an optical density of 2.0 at 600 nm. The cultures were cooled to 20° C. and induced with 1 mM IPTG. Fresh ampicillin was added to a final concentration of 50 μg/ml and the cells were grown overnight at 20° C.
Cell pellets (3L) were lysed for purification to yield 15-24 mgs of purified NS5B. The lysis buffer consisted of 20 mM Tris-HCl, pH 7.4, 500 mM NaCl, 0.5% triton X-100, 1 mM DTT, 1 mM EDTA, 20% glycerol, 0.5 mg/ml lysozyme, 10 mM MgCl2, 15 ug/ml deoxyribonuclease I, and Complete™ protease inhibitor tablets (Roche). After addition of the lysis buffer, frozen cell pellets were resuspended using a tissue homogenizer. To reduce the viscosity of the sample, aliquots of the lysate were sonicated on ice using a microtip attached to a Branson sonicator. The sonicated lysate was centrifuged at 100,000×g for 1 hr at 4° C. and filtered through a 0.2 μm filter unit (Corning).
The protein was purified using two sequential chromatography steps: Heparin sepharose CL-6B and polyU sepharose 4B (Pharmacia). The chromatography buffers were identical to the lysis buffer but contained no lysozyme, deoxyribonuclease I, MgCl2 or protease inhibitor and the NaCl concentration of the buffer was adjusted according to the requirements for charging the protein onto the column. Each column was eluted with a NaCl gradient which varied in length from 5-50 column volumes depending on the column type. After the final chromatography step, the resulting purity of the enzyme is >90% based on SDS-PAGE analysis. The enzyme was aliquoted and stored at −80° C.
Standard HCV NS5B RdRp enzyme assay. HCV RdRp genotype 1b assays were run in a final volume of 60 μl in 96 well plates (Corning 3600). The assay buffer is composed of 20 mM Hepes, pH 7.5, 2.5 mM KCl, 2.5 mM MgCl2, 1 mM DTT, 1.6 U RNAse inhibitor (Promega N2515), 0.01 mg/ml BSA (Sigma B6917), and 2% glycerol. All compounds were serially diluted (3-fold) in DMSO and diluted further in water such that the final concentration of DMSO in the assay was 2%. HCV RdRp genotype 1b enzyme was used at a final concentration of 28 nM. A polyA template was used at 6 nM, and a biotinylated oligo-dT12 primer was used at 180 nM final concentration. Template was obtained commercially (Amersham 27-4110). Biotinylated primer was prepared by Sigma Genosys. 3H-UTP was used at 0.6 μCi (0.29 μM total UTP). Reactions were initiated by the addition of enzyme, incubated at 30° C. for 60 min, and stopped by adding 25 μl of 50 mM EDTA containing SPA beads (4 μg/μl, Amersham RPNQ 0007). Plates were read on a Packard Top Count NXT after >1 hr incubation at room temperature.
Modified HCV NS5B RdRp enzyme assay. A modified enzyme assay was performed essentially as described for the standard enzyme assay except for the following: The biotinylated oligo dT12 primer was precaptured on streptavidin-coated SPA beads by mixing primer and beads in assay buffer and incubating at room temperature for one hour. Unbound primer was removed after centrifugation. The primer-bound beads were resuspended in 20 mM Hepes buffer, pH 7.5 and used in the assay at final concentrations of 20 nM primer and 0.67 μg/μl beads. Order of addition in the assay: enzyme (1.75 nM) was added to diluted compound followed by the addition of a mixture of template (0.36 nM), 3H-UTP (0.6 μCi, 0.29 μM), and primer-bound beads, to initiate the reaction; concentrations given are final. Reactions were allowed to proceed for 4 hours at 30° C.
IC50 values for compounds were determined using seven different [I]. […]

HCV replicon cells = experiment: HCV replicon FRET assay; format: cell-based; details: Hepatitis C virus
Method: FRET Assay Preparation. The HCV FRET screening assay was performed in 96-well cell culture plates. The FRET peptide (Anaspec, Inc.) (Taliani et al., Anal. Biochem. 1996, 240, 60-67) contains a fluorescence donor, EDANS, near one end of the peptide and an acceptor, DABCYL, near the other end. The fluorescence of the peptide is quenched by […] resonance energy transfer (RET) between the donor and the acceptor, but as the NS3 protease cleaves the peptide the products are released from RET quenching and the fluorescence of the donor becomes apparent. The assay reagent was made as follows: 5× cell Luciferase cell culture lysis reagent from Promega (#E153A) diluted to 1× with dH2O, NaCl added to 150 mM final, the FRET peptide diluted to 20 μM final from a 2 mM stock.
To prepare plates, HCV replicon cells, with or without a Renilla luciferase reporter gene, were trypsinized and plated in a 96-well plate with titrated test compounds added in columns 3 through 12; columns 1 and 2 contained a control compound (HCV control inhibitor), and the bottom row contained cells with DMSO only. The plates were then placed in a CO2 incubator at 37° C.
Assays. Subsequent to addition of the test compounds described above (FRET Assay Preparation), at various times the plate was removed and Alamar blue solution (Trek Diagnostics, #00-100) was added to measure cellular toxicity. After reading in a Cytoflour 4000 instrument (PE Biosystems), plates were rinsed with PBS and then used for FRET assay by the addition of 30 ul of the FRET peptide assay reagent described above (FRET Assay Preparation) per well. The plate was then placed into the Cytoflour 4000 instrument which had been set to 340 excite/490 emission, automatic mode for up to 20 cycles and the plate read in a kinetic mode. Typically, the signal to noise using an endpoint analysis after the reads was at least three-fold. Alternatively, after Alamar blue reading, plates were rinsed with PBS, then used for luciferase assay using the Promega Dual-Glo Luciferase Assay System or the Promega EnduRen Live Cell Substrate assay.
Compound analysis was performed by quantification of the relative HCV replicon inhibition and the relative cytotoxicity values. To calculate cytoxicity values, the average Alamar Blue fluorescence signals from the control wells were set as 100% non-toxic. The individual signals in each of the compound test wells were then divided by the average control signal and multiplied by 100% to determine […]. To calculate the HCV replicon inhibition values, an average background value was obtained from the two wells containing the highest amount of HCV control inhibitor at the end of the assay period. These numbers were similar to those obtained from naïve Huh-7 cells. The background numbers were then subtracted from the average signal obtained from the control wells and this number was used as 100% activity. The individual signals in each of the compound test wells were then divided by the averaged control values after background subtraction and multiplied by 100% to determine percent activity. EC50 values were calculated as the concentration which caused a 50% reduction in FRET or luciferase activity. The two numbers generated for the compound plate, percent cytoxicity and percent activity, were used to determine compounds of interest for further analysis.

T1 sequence (Q9WMX2 2420-2992): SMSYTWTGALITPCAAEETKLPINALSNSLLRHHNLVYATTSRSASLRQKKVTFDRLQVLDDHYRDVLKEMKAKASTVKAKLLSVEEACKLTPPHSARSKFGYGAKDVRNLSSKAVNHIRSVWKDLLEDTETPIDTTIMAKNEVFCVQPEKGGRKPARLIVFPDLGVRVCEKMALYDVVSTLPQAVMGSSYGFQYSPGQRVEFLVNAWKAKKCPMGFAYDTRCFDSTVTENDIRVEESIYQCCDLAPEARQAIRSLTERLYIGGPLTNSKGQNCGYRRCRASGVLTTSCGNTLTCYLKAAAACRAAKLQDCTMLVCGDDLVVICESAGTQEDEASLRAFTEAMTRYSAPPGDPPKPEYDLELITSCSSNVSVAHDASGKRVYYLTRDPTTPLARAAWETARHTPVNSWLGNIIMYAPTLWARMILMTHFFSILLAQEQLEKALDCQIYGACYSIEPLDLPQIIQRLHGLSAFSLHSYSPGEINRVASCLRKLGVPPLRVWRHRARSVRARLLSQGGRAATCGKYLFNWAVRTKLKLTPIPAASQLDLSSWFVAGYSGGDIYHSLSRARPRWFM

With `COc1ccc2c(c1)C1CC1(C(=O)N1C3CCC1CC(C)(O)C3)Cn1c-2c(C2CCCCC2)c2ccc(C(=O)NS(=O)(=O)N3CCC3)cc21` (stereo not drawn) the IC50 (HCV NS5B) was 0.00458 to 0.5 µM and the EC50 (HCV replicon cells) was 0.00458 to 0.5 µM.
`COc1ccc2c(c1)C1CC1(C(=O)N1C3CCC1CC(N(CCN(C)C)Cc1ccccc1)C3)Cn1c-2c(C2CCCCC2)c2ccc(C(=O)NS(=O)(=O)N3CCC3)cc21` (stereo not drawn) was tested, and the IC50 (HCV NS5B) was 0.00458 to 0.5 µM and the EC50 (HCV replicon cells) was 0.00458 to 0.5 µM.
`COc1ccc2c(c1)C1CC1(C(=O)N1C3CCC1CC(NCc1ccccc1)C3)Cn1c-2c(C2CCCCC2)c2ccc(C(=O)NS(=O)(=O)N3CCC3)cc21` (stereo not drawn) showed an IC50 (HCV NS5B) of 0.00458 to 0.5 µM and an EC50 (HCV replicon cells) of 0.00458 to 0.5 µM.
With `COc1ccc2c(c1)C1CC1(C(=O)N1C3CCC1CC(N(C)Cc1ccccc1)C3)Cn1c-2c(C2CCCCC2)c2ccc(C(=O)NS(=O)(=O)N3CCC3)cc21` (stereo not drawn) the IC50 (HCV NS5B) was 0.00458 to 0.5 µM and the EC50 (HCV replicon cells) was 0.00458 to 0.5 µM.
Work on `COc1ccc2c(c1)C1CC1(C(=O)N1C3CCC1CC(=O)C3)Cn1c-2c(C2CCCCC2)c2ccc(C(=O)NS(=O)(=O)C3CC3)cc21` (stereo not drawn) yielded an IC50 (HCV NS5B) of 0.00458 to 0.5 µM.
Work on `COc1ccc2c(c1)C1CC1(C(=O)N1C3CCC[C@@H]1COC3)Cn1c-2c(C2CCCCC2)c2ccc(C(=O)NS(=O)(=O)C(C)C)cc21` (stereo partly drawn) yielded an IC50 (HCV NS5B) of 0.00458 to 0.5 µM and an EC50 (HCV replicon cells) of 0.00458 to 0.5 µM.
Compound `COc1ccc2c(c1)C1CC1(C(=O)N1C3CCC[C@@H]1COC3)Cn1c-2c(C2CCCCC2)c2ccc(C(=O)NS(=O)(=O)C3CCCC3)cc21` (stereo partly drawn) has an IC50 (HCV NS5B) of 0.00458 to 0.5 µM and an EC50 (HCV replicon cells) of 0.00458 to 0.5 µM.
For `COc1ccc2c(c1)C1CC1(C(=O)N1C3COCC1COC3)Cn1c-2c(C2CCCCC2)c2ccc(C(=O)NS(=O)(=O)C3CCCCC3)cc21` (stereo not drawn), the IC50 (HCV NS5B) was 0.00458 to 0.5 µM and the EC50 (HCV replicon cells) was 0.00458 to 0.5 µM.
`COc1ccc2c(c1)C1CC1(C(=O)N1C3CCC[C@@H]1COC3)Cn1c-2c(C2CCCCC2)c2ccc(C(=O)NS(=O)(=O)CC(F)(F)F)cc21` (stereo partly drawn) was tested, and the IC50 (HCV NS5B) was 0.00458 to 0.5 µM and the EC50 (HCV replicon cells) was 0.00458 to 0.5 µM.
`COc1ccc2c(c1)C1CC1(C(=O)N1C3COCC1COC3)Cn1c-2c(C2CCCCC2)c2ccc(C(=O)NS(=O)(=O)CCC(F)(F)F)cc21` (stereo not drawn) gave an IC50 (HCV NS5B) of 0.00458 to 0.5 µM and an EC50 (HCV replicon cells) of 0.00458 to 0.5 µM.
Compound `COc1ccc2c(c1)C1CC1(C(=O)N1C3COCC1COC3)Cn1c-2c(C2CCCCC2)c2ccc(C(=O)NS(=O)(=O)C3CCCC3)cc21` (stereo not drawn) has an IC50 (HCV NS5B) of 0.00458 to 0.5 µM and an EC50 (HCV replicon cells) of 0.00458 to 0.5 µM.
With `COc1ccc2c(c1)C1CC1(C(=O)N1C3COCC1COC3)Cn1c-2c(C2CCCCC2)c2ccc(C(=O)NS(=O)(=O)CC(F)(F)F)cc21` (stereo not drawn) the IC50 (HCV NS5B) was 0.00458 to 0.5 µM and the EC50 (HCV replicon cells) was 0.00458 to 0.5 µM.
`COc1ccc2c(c1)C1CC1(C(=O)N1C3CCCC1COC3)Cn1c-2c(C2CCCCC2)c2ccc(C(=O)NS(=O)(=O)CCC(F)(F)F)cc21` (stereo not drawn) showed an IC50 (HCV NS5B) of 0.00458 to 0.5 µM and an EC50 (HCV replicon cells) of 0.00458 to 0.5 µM.
`COc1ccc2c(c1)C1CC1(C(=O)N1C3CCCC1COC3)Cn1c-2c(C2CCCCC2)c2ccc(C(=O)NS(=O)(=O)C3CCC3)cc21` (stereo not drawn) was tested, and the IC50 (HCV NS5B) was 0.00458 to 0.5 µM and the EC50 (HCV replicon cells) was 0.00458 to 0.5 µM.
